According to US10792365B2, “Peptide derivative and use thereof” (Toray Industries, Inc., priority 2016, dated 2020):
Structures can show the parent of a compound that is named as a salt. Where two headings read alike, the source gives them in different places.

Assays:
L1210 cells [1] = assay type: cell-based, mouse; settings: 48 h
Protocol: (§1) The compound of Example 12 and the compound of Example 13 were measured for cytotoxicity thereof on SKOV-3 cells, A549 cells, and L1210 cells by using MTS method.
(§2) An evaluation method of the compound of Example 12 is as follows: To each cell culturing in a medium that is absent of folate, the compound of Example 12 was treated for two hours, and then the cells transferred to a fresh medium absent of the compound and continuously maintained and cultured for 48 hours. Surviving cells after 48 hours were counted by using MTS method.
as §2, with “13” for “12”, “six” for “two”
(§3) It has been reported that SKOV-3 cells and L1210 cells express folate acceptors in medium to high expression level on their cell surface. It has been reported that A549 cells express folate acceptors in low expression level or undetectable level on its cell surface (Analytical Biochemistry, (2005), 338: pp. 284-293; Molecular Cancer Therapeutics, (2015), 14: pp. 1605 to 13).

A549 cells [2] = assay type: cell-based, human; settings: 48 h
Protocol: as §1, §2
as §2, with “13” for “12”, “six” for “two”
as §3

SKOV-3 cells [3] = assay type: cell-based, human; settings: 48 h
Protocol: as §1, §2
as §2, with “13” for “12”, “six” for “two”
as §3

[4] = Parallel Artificial Membrane Permeation Assay (PAMPA), Pre-coated PAMPA Plate System (Corning)
Protocol: Reference Example 14, the Compound of Reference Example 16, and the Compound of Comparative Example was Evaluated by Using Pre-Coated PAMPA PlateSystem (Corning)
A frozen-stored, Pre-coated PAMPA Plate System was allowed to stand at room temperature for thirty minutes or more. Subsequently, 320 μL of the standard solution was added to a Donor side plate of Pre-coated PAMPA Plate System, and 200 μL of the PBS containing 20% of methanol was added to an Acceptor side plate. Both of the plates were set for the system, and the plates allowed to stand at room temperature for five hours. The reaction liquid in each well of the Donor side and Acceptor side plates was subjected to LC/MS analysis (hereinafter, LC/MS-3), and the concentration of the compounds in each well calculated.
Using the obtained concentration of the compounds in the reaction liquid in each well, the membrane permeability coefficients (Pe) (cm/s) were calculated by the following formula: Cequilibrium=[…] Pe=[−ln(1−CA/Cequilibrium)]/S×(1/VD+1/VA)×t Cequilibrium: Equilibrium concentration of the wells in the Donor side and Acceptor side plates CD: Concentration after five hours of the wells in the Donor side plate (mmol/L) VD: Volume of the standard solution added to the wells in the Donor side plate (0.32 mL) CA: Concentration after five hours of the wells in the Acceptor side plate (mmol/L) VA: Volume of the PBS containing 20% of methanol added to the wells in the Acceptor side plate (0.2 mL) S: Surface of the membrane (0.3 cm^2) t: Standing time 18,000 s (=5 hrs).

A549 cells [5] = experiment: In vitro cytotoxicity of the peptide derivative (I), MTS method, A549 cells; assay type: cell-based, human; settings: Homo sapiens
Excerpt: (§4) The cytotoxicity of the peptide derivative (I) or a pharmaceutically acceptable salt thereof, or the conjugate including the peptide derivative (I) or a pharmaceutically acceptable salt thereof can be evaluated with an in vitro study. Examples of the in vitro studies include the trypan blue dye exclusion method, the lactate dehydrogenase (LDH) activity assay, [^3H]thymidine incorporation method, or propidium iodide nuclear stain that each measures the number of dead cells or surviving cells post treated with the compound; a method using dyes such as MTT, MTS, and WST (Current Protocol in Toxicology, (2000), 2.6.1-2.6.27); or a method in which the amount of ATP is measured using CellTiter-Glow (Promega Corporation) and the like, and preferably include the method in which the number of surviving cells post treated with the compound is measured by using the MTS method to determine values of the cytotoxicity at that time from 50% effect-concentration (EC50). Furthermore, in the evaluation of the cytotoxicity of the conjugate including the peptide derivative (I) or a pharmaceutically acceptable salt thereof, preferred method is the one that for a certain time, cells are treated with a medium containing the compound, the cells are then transferred to a medium not containing the compound, and the number of surviving cells are measured after cultivation for additional certain time (Bioconjugate Chemistry., 2014; 25: pp. 560-568). For the in vitro studies, human ovarian cancer cell SKOV-3 cells, human alveolar basement epithelial gland cancer cell A549 cells, mouse lymphocytic leukocyte L1210 cells and the like are used.

SKOV-3 cells [6] = experiment: In vitro cytotoxicity of the peptide derivative (I), MTS method, SKOV-3 cells; assay type: cell-based, human; settings: Homo sapiens, SK-OV-3
Excerpt: as §4

L1210 cells [7] = experiment: In vitro cytotoxicity of the peptide derivative (I), MTS method, L1210 cells; assay type: cell-based, mouse; settings: Mus musculus
Excerpt: as §4

Row | Compound | EC50 (L1210 cells [1]) [nM] | EC50 (A549 cells [2]) [nM] | EC50 (SKOV-3 cells [3]) [nM] | Papp at 5 h, 200 μmol/L [4] [×10⁻⁶ cm/s] | EC50 (A549 cells [5]) [nM] | EC50 (SKOV-3 cells [6]) [nM] | EC50 (L1210 cells [7]) [nM]
1 | CC[C@H](C)C([C@@H](CC(=O)N1CCC[C@H]1[C@H](OC)[C@@H](C)C(=O)N[C@@H](Cc1ccccc1)c1nc(C(=O)N(C)CCSSCCN(C)C(=O)CCOCCOCCOCCOCCOCCOCCOCCOCCOCCOCCOCCOCCNC(=O)CCN2C(=O)CC(SCCNC(=O)[C@H](CCC(=O)O)NC(=O)CC[C@H](NC(=O)c3ccc(NCc4c[nH]c5nc(N)nc(=O)c-5n4)cc3)C(=O)O)C2=O)cs1)OC)N(C)C(=O)[C@@H](NC(=O)[C@H](C(C)C)N(C)C)C(C)C (stereo in doubt) [Example 13] | 36 | > 300 | 19.4 | – | – | – | –
2 | CC[C@H](C)[C@@H]([C@@H](CC(=O)N1CCC[C@H]1[C@H](OC)[C@@H](C)C(=O)N[C@@H](Cc1ccccc1)c1nc(C(=O)OCCO)cs1)OC)N(C)C(=O)[C@@H](NC(=O)[C@H](C(C)C)N(C)C)C(C)C [Example 8, 2-hydroxyethyl 2-((S)-1-((2R,3R)-3-((S)-1-((3R,4S,5S)-4-((S)-2-((S)-2-(dimethylamino)-3-methylbutanamido)-N,3-dimethylbutanamido)-3-methoxy-5-methylheptanoyl)pyrrolidin-2-yl)-3-methoxy-2-methylpropanamido)-2-phenylethyl)thiazole-4-carboxylate] | – | – | – | 0.04 | 1.75 | 0.09 | 4.74
3 | CC[C@H](C)[C@@H]([C@@H](CC(=O)N1CCC[C@H]1[C@H](OC)[C@@H](C)C(=O)N[C@@H](Cc1ccccc1)c1nc(C(=O)NCCN)cs1)OC)N(C)C(=O)[C@@H](NC(=O)[C@H](C(C)C)N(C)C)C(C)C [Reference Example 12, N-(2-aminoethyl)-2-((S)-1-(((2S,3R)-3-((S)-1-((3R,4S,5S)-4-((S)-2-((S)-2-(dimethylamino)-3-methylbutanamido)-N, 3-dimethylbutanamido)-3-methoxy-5-methylheptanoyl)pyrrolidin-2-yl)-3-methoxy-2-methylpropanamido)-2-phenylethyl)thiazole-4-carboxamidedihydrochloride, reference compound] | – | – | – | 0.01 | > 10 | > 10 | > 50
